Converted amounts (≈) assume the structure as drawn. Read-outs that look alike come from different tables or passages of the source.
Columns and labels:
[1] = in vitro; conditions: mouse, microsomes, pH 7.4
[2] = 24 h, pH 7.4
[3] = In vitro plasma stability; conditions: for stability in blood plasma (in words): mouse plasma, measured time span 120 min; for half-life at 2 µM: mouse, plasma
[4] = biological target: SARS-CoV-2 RdRp (Severe acute respiratory syndrome coronavirus 2, UniProt P0DTD1); experiment: biochemical; conditions: for inhibition at 25 µM / inhibition at 100 µM: SARS-CoV-2 RdRp; for inhibition at 25 µM: compound at 25 µM, read-out: % inhib 25 µM; for inhibition at 100 µM: compound at 100 µM, read-out: % inhib 100 µM
[5] = system: 3CL^pro; conditions: viral protease 3CLpro, cited from earlier work; for IC50: in vitro
[6] = Aqueous kinetic solubility in PBS pH 7.4; conditions: PBS neutral buffer pH 7.4, 25 °C, 24 h, target 250 µM, 2.5% DMSO
[7] = system: NTPase/helicase; conditions: cited from earlier work
[8] = system: M^pro; conditions: cited from earlier work

Compound	half-life at 4.6 µM [1] [h]	kinetic solubility (Sk) [2] [µM]	stability in blood plasma (in words) [3]	half-life at 2 µM [3] [h]	IC50 [4] [µM]	inhibition at 25 µM [4] [%]	inhibition at 100 µM [4] [%]	IC50 [5] [µM]	kinetic solubility (Sk) [6] [µM]	activity against SARS-CoV NTPase/helicase [7]	activity against SARS-CoV Mpro [8]	Ki [5] [µM]
O=c1cc(-c2ccc(O)c(O)c2)oc2cc(O)cc(O)c12 [Luteolin, luteolin]	> 1	21 ± 4 (≈ 6.01 µg/mL)	stable in the measured time span	> 2	4.6 ± 0.3	89	100	20	–	–	–	–
O=c1c(O)c(-c2ccc(O)c(O)c2)oc2cc(O)cc(O)c12 [Quercetin, quercetin]	> 1	–	poorly stable	0.117 ± 0.0333	–	81	100	24	16 ± 5 (≈ 4.84 µg/mL)	active	active	~7

— PMC9216299, “Quercetin and luteolin are single-digit micromolar inhibitors of the SARS-CoV-2 RNA-dependent RNA polymerase” (Scientific Reports, 2022)
